Source: patent US8563505B2, “Hepatitis C virus inhibitors” (priority 2008, dated 2013)

What was measured:
[1] = target: T1, HCV NS3/4A protease complex (Hepatitis C virus genotype 1a, UniProt P27958, C1454S/C1711G); experiment: FRET peptide assay to monitor HCV NS3/4A proteolytic activity; assay type: biochemical; details: NS3/4A strain not stated
T1 construct: DNA encoding the recombinant HCV NS3/4A protease complex (amino acids 1027 to 1711) for these strains; inferred from pET21b vector and Ni-NTA purification) (C); made in house; host or cells: Escherichia coli BL21 (DE3), pET21b
Text: HCV NS3 protease complexes, derived from the BMS strain, H77 strain or J4L6S strain, were generated, as described below. These purified recombinant proteins were generated for use in a homogeneous assay (see below) to provide an indication of how effective compounds of the present disclosure would be in inhibiting HCV NS3 proteolytic activity.
The H77 and J4L6S strains were used for production of recombinant NS3/4A protease complexes. DNA encoding the recombinant HCV NS3/4A protease complex (amino acids 1027 to 1711) for these strains was manipulated as described by P. Gallinari et al. (see Gallinari P, Paolini C, Brennan D, Nardi C, Steinkuhler C, De Francesco R. Biochemistry. 38(17):5620-32, (1999)). Briefly, a three-lysine solubilizing tail was added at the 3′-end of the NS4A coding region. The cysteine in the P1 position of the NS4A-NS4B cleavage site (amino acid 1711) was changed to a glycine to avoid the proteolytic cleavage of the lysine tag. Furthermore, a cysteine to serine mutation was introduced by PCR at amino acid position 1454 to prevent the autolytic cleavage in the NS3 helicase domain. The variant DNA fragment was cloned in the pET21b bacterial expression vector (Novagen) and the NS3/4A complex was expressed in Escherichia coli strain BL21 (DE3) (Invitrogen) following the protocol described by P. Gallinari et al. (see Gallinari P, Brennan D, Nardi C, Brunetti M, Tomei L, Steinkuhler C, De Francesco R., J Virol. 72(8):6758-69 (1998)) with modifications. Briefly, the NS3/4A protease complex expression was induced with 0.5 millimolar (mM) Isopropyl β-D-1-thiogalactopyranoside (IPTG) for 22 hours (h) at 20° C. A typical fermentation (1 Liter (L)) yielded approximately 10 grams (g) of wet cell paste. The cells were resuspended in lysis buffer (10 mL/g) consisting of 25 mM N-(2-Hydroxyethyl)Piperazine-N′-(2-Ethane Sulfonic acid) (HEPES), pH 7.5, 20% glycerol, 500 mM Sodium Chloride (NaCl), 0.5% Triton X-100, 1 microgram/milliliter ([…]) lysozyme, 5 mM Magnesium Chloride (MgCl2), 1 μg/ml DnaseI, 5 mM […] (βME), Protease inhibitor-Ethylenediamine Tetraacetic acid (EDTA) free (Roche), homogenized and incubated for 20 minutes (min) at 4° C. The homogenate was sonicated and clarified by ultra-centrifugation at 235000 g for 1 hour (h) at 4° C. Imidazole was added to the supernatant to a final concentration of 15 mM and the pH adjusted to 8.0. The crude protein extract was loaded on a Nickel-Nitrilotriacetic acid (Ni-NTA) column pre-equilibrated with buffer B (25 mM HEPES, pH 8.0, 20% glycerol, 500 mM NaCl, 0.5% Triton X-100, 15 mM imidazole, 5 mM βME). The sample was loaded at a flow rate of 1 mL/min. The column was washed with 15 column volumes of buffer C (same as buffer B except with 0.2% Triton X-100). The protein was eluted with 5 column volumes of buffer D (same as buffer C except with 200 mM Imidazole).
NS3/4A protease complex-containing fractions were pooled and loaded on a desalting column Superdex-S200 pre-equilibrated with buffer D (25 mM HEPES, pH 7.5, 20% glycerol, 300 mM NaCl, 0.2% Triton X-100, 10 mM (βME). Sample was loaded at a flow rate of 1 mL/min. NS3/4A protease complex-containing fractions were pooled and concentrated to approximately 0.5 mg/ml. The purity of the NS3/4A protease complexes, derived from the BMS, H77 and J4L6S strains, were judged to be greater than 90% by SDS-PAGE and mass spectrometry analyses. The enzyme was stored at −80° C., thawed on ice and diluted prior to use in assay buffer.
The purpose of this in vitro assay was to measure the inhibition of HCV NS3 protease complexes, derived from the BMS strain, H77 strain or J4L6S strain, as described above, by compounds of the present disclosure. This assay provides an indication of how effective compounds of the present disclosure would be in inhibiting HCV NS3 proteolytic activity.
In order to monitor HCV NS3/4A protease activity, an NS3/4A peptide substrate was used. […]

[2] = tested on: HCV replicon in HUH-7 cells; experiment: HCV replicon assay (FRET, confirmed by luciferase reporter); assay type: cell-based, Hepatitis C virus (strain 1b); details: Hepatitis C virus, 96 h, HUH-7 replicon cells, 4 days
Text: An HCV replicon whole cell system was established as described by Lohmann V, Korner F, Koch J, Herian U, Theilmann L, Bartenschlager R., Science 285(5424):110-3 (1999). This system enabled us to evaluate the effects of our HCV Protease compounds on HCV RNA replication. Briefly, using the HCV strain 1b sequence described in the Lohmann paper (Assession number: AJ238799), an HCV cDNA was synthesized by Operon Technologies, Inc. (Alameda, Calif.), and the full-length replicon was then assembled in plasmid pGem9zf(+) (Promega, Madison, Wis.) using standard molecular biology techniques. The replicon consists of (i) the HCV 5′ UTR fused to the first 12 amino acids of the capsid protein, (ii) the neomycin phosphotransferase gene (neo), (iii) the IRES from encephalomyocarditis virus (EMCV), and (iv) HCV NS3 to NS5B genes and the HCV 3′ UTR. Plasmid DNAs were linearized with Seal and RNA transcripts were synthesized in vitro using the T7 MegaScript transcription kit (Ambion, Austin, Tex.) according to manufacturer's directions. In vitro transcripts of the cDNA were transfected into the human hepatoma cell line, HUH-7. […] Resulting cell lines were characterized for positive and negative strand RNA production and protein production over time.
The HCV replicon FRET assay was developed to monitor the inhibitory effects of compounds described in the disclosure on HCV viral replication. HUH-7 cells, constitutively expressing the HCV replicon, were grown in Dulbecco's Modified Eagle Media (DMEM) (Gibco-BRL) containing 10% Fetal calf serum (FCS) (Sigma) and 1 mg/ml G418 (Gibco-BRL). Cells were seeded the night before (1.5×10^4 cells/well) in 96-well tissue-culture sterile plates. Compound and no compound controls were prepared in DMEM containing 4% FCS, 1:100 Penicillin/Streptomysin (Gibco-BRL), 1:100 L-glutamine and 5% DMSO in the dilution plate (0.5% DMSO final concentration in the assay). Compound/DMSO mixes were added to the cells and incubated for 4 days at 37° C. After 4 days, cells were first assessed for cytotoxicity using alamar Blue (Trek Diagnostic Systems) for a CC50 reading. The toxicity of compound (CC50) was determined by adding 1/10th volume of alamar Blue to the media incubating the cells. After 4 h, the fluorescence signal from each well was read, with an excitation wavelength at 530 nm and an emission wavelength of 580 nm, using the Cytofluor Series 4000 (Perspective Biosystems). Plates were then rinsed thoroughly with Phosphate-Buffered Saline (PBS) (3 times 150 μl).
As a secondary assay, EC50 determinations from the replicon FRET assay were confirmed in a replicon luciferase reporter assay. Utilization of a replicon luciferase reporter assay was first described by Krieger et al (Krieger N, Lohmann V, and Bartenschlager R, J. Viral. 75(10):4614-4624 (2001)). The replicon construct described for our FRET assay was modified by inserting cDNA encoding a humanized form of the Renilla luciferase gene and a linker sequence fused directly to the 3′-end of the luciferase gene. This insert was introduced into the replicon construct using an Asc1 restriction site located in core, directly upstream of the neomycin marker gene. The adaptive mutation at position 1179 (serine to isoleucine) was also introduced (Blight K J, Kolykhalov, A A, Rice, C M, Science 290(5498):1972-1974). A stable cell line constitutively expressing this HCV replicon construct was generated as described above. The luciferase reporter assay was set up as described for the HCV replicon FRET assay with the following modifications. Following 4 days in a 37° C./5% CO2 incubator, cells were analyzed for Renilla Luciferase activity using the Promega Dual-Glo Luciferase Assay System. Media (100 μl) was removed from each well containing cells. To the remaining 50 μl of media, 50 μl of Dual-Glo Luciferase Reagent was added, and plates rocked for 10 min to 2 h at room temperature. […]

T1 sequence (P27958 1027-1711 C1454S/C1711G, one chain of several): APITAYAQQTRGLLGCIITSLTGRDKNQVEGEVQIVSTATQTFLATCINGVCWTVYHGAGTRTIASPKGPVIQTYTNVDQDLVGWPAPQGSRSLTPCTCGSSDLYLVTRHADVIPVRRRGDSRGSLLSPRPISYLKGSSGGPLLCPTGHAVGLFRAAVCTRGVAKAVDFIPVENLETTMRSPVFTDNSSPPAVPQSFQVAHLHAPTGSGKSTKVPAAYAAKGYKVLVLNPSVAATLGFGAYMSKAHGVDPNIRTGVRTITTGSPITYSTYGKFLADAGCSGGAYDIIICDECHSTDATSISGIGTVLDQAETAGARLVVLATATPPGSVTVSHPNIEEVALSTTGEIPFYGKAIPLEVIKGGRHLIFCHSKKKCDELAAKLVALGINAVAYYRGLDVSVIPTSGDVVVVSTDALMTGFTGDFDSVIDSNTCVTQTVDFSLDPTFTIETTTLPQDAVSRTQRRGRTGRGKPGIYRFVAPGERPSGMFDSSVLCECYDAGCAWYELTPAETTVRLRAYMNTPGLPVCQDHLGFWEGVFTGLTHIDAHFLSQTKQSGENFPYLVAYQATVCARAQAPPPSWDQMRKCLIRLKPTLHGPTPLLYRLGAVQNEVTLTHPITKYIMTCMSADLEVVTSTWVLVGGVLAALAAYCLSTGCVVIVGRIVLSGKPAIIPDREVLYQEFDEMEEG

Structure (SMILES) | IC50 ([1]; class symbols) [nM] | IC50 ([1]; numeric values) [nM] | EC50 ([2]; numeric values) [nM] | EC50 ([2]; class symbols) [nM]
CO[C@@]12C[C@@H](C(=O)N[C@]3(C(=O)NS(=O)(=O)C4CC4)C[C@H]3C3CC3)N(C1)C(=O)[C@H](C(C)(C)C)NC(=O)OCCCCCCc1ccc(Cl)cc1-c1ccc2cc1 [Example 20] | 1 to 3 |  |  | 
CO[C@@]12C[C@@H](C(=O)N[C@]3(C(=O)NS(=O)(=O)C4CC4)C[C@H]3C3CC3)N(C1)C(=O)[C@H](C(C)(C)C)NC(=O)OCCCCCCc1ccccc1-c1ccc2cc1 [Example 2] |  | 1.5 | 16 | 
CO[C@@]12C[C@@H](C(=O)N[C@]3(C(=O)NS(=O)(=O)C4CC4)C[C@H]3C3CC3)N(C1)C(=O)[C@H](C(C)(C)C)NC(=O)OCC(C)(C)CCCc1ccccc1-c1ccc2cc1 [Example 16] | 4 to 7 |  |  | 
COc1ccc2c(c1)CCCCC(C)(C)COC(=O)N[C@@H](C(C)(C)C)C(=O)N1C[C@@](OC)(C[C@H]1C(=O)N[C@]1(C(=O)NS(=O)(=O)C3CC3)C[C@H]1C1CC1)c1ccc-2cc1 [Example 13] | 4 to 7 |  |  | 
COc1ccc2c(c1)CCCC(C)(C)CCOC(=O)N[C@@H](C(C)(C)C)C(=O)N1C[C@@](OC)(C[C@H]1C(=O)N[C@]1(C(=O)NS(=O)(=O)C3CC3)C[C@H]1C1CC1)c1ccc-2cc1 [Example 11] | 1 to 3 |  |  | 5.5 to 10
CO[C@@]12C[C@@H](C(=O)N[C@]3(C(=O)NS(=O)(=O)C4CC4)C[C@H]3C(F)F)N(C1)C(=O)[C@H](C(C)(C)C)NC(=O)OCC(C)(C)CCCCc1ccccc1-c1ccc2cc1 [Example 7] | 1 to 3 |  |  | 5.5 to 10
CO[C@@]12C[C@@H](C(=O)N[C@]3(C(=O)NS(=O)(=O)C4CC4)C[C@H]3C3CC3)N(C1)C(=O)[C@H](C(C)(C)C)NC(=O)OCC(C)(C)CCCCc1cc(N(C)C)ccc1-c1ccc2cc1 [Example 22] | 1 to 3 |  |  | 
C=C[C@@H]1C[C@]1(NC(=O)[C@@H]1C[C@]2(OC)CN1C(=O)[C@H](C(C)(C)C)NC(=O)OCCCCc1cc2ccc1-c1ccccc1)C(=O)NS(=O)(=O)C1CC1 [Example 8] | 8 to 11 |  |  | 21 to 30
CO[C@@]12C[C@@H](C(=O)N[C@]3(C(=O)NS(=O)(=O)C4CC4)C[C@H]3C3CC3)N(C1)C(=O)[C@H](C(C)(C)C)NC(=O)OCCCCc1cccc(c1)-c1cccc2c1 [Example 21] | 1 to 3 |  |  | 
CO[C@@]12C[C@@H](C(=O)N[C@]3(C(=O)NS(=O)(=O)C4CC4)C[C@H]3C3CC3)N(C1)C(=O)[C@H](C(C)(C)C)NC(=O)OCCC(C)(C)CCCc1ccccc1-c1ccc2cc1 [Example 3] | 4 to 7 |  |  | 21 to 30
CO[C@@]12C[C@@H](C(=O)N[C@]3(C(=O)NS(=O)(=O)C4CC4)C[C@H]3C3CC3)N(C1)C(=O)[C@H](C(C)(C)C)NC(=O)OCCCCCCCc1ccccc1-c1ccc2cc1 [Example 18] | 1 to 3 |  |  | 
CO[C@@]12C[C@@H](C(=O)N[C@]3(C(=O)NS(=O)(=O)C4CC4)C[C@H]3C3CC3)N(C1)C(=O)[C@H](C(C)(C)C)NC(=O)OCCCCCc1ccccc1-c1ccc2cc1 [Example 14] | 8 to 11 |  |  | 
C=C[C@@H]1C[C@]1(NC(=O)[C@@H]1C[C@]2(OC)CN1C(=O)[C@H](C(C)(C)C)NC(=O)OCCCCCc1cc2ccc1-c1ccccc1)C(=O)NS(=O)(=O)C1CC1 [Example 9] |  | 4 | 26 | 
C=C[C@@H]1C[C@]1(NC(=O)[C@@H]1C[C@]2(OC)CN1C(=O)[C@H](C(C)(C)C)NC(=O)OCCC(C)(C)CCCc1cc(OC)ccc1-c1ccc2cc1)C(=O)NS(=O)(=O)C1CC1 [Example 10] | 1 to 3 |  |  | 5.5 to 10
C=C[C@@H]1C[C@]1(NC(=O)[C@@H]1C[C@]2(OC)CN1C(=O)[C@H](C(C)(C)C)NC(=O)OCCCCCCc1ccccc1-c1ccc2cc1)C(=O)NS(=O)(=O)C1CC1 [Example 1] |  | 1 | 5 | 
C=C[C@@H]1C[C@]1(NC(=O)[C@@H]1C[C@]2(OC)CN1C(=O)[C@H](C(C)(C)C)NC(=O)OCC(C)(C)CCCCc1cc(OC)ccc1-c1ccc2cc1)C(=O)NS(=O)(=O)C1CC1 [Example 12] | 1 to 3 |  |  | 5.5 to 10
C=C[C@@H]1C[C@]1(NC(=O)[C@@H]1C[C@]2(OC)CN1C(=O)[C@H](C(C)(C)C)NC(=O)OCCCCCCCc1ccccc1-c1ccc2cc1)C(=O)NS(=O)(=O)C1CC1 [Example 19] | 1 to 3 |  |  | 
C=C[C@@H]1C[C@]1(NC(=O)[C@@H]1C[C@]2(OC)CN1C(=O)[C@H](C(C)(C)C)NC(=O)OCCCCCc1ccccc1-c1ccc2cc1)C(=O)NS(=O)(=O)C1CC1 [Example 15] | 4 to 7 |  |  | 
